Patent publication US20250325499A1, “IMMUNO-ABLATION TREATMENT FOR SOLID TUMORS” (Northwestern University, priority 2022, published 2025)

What was measured:
N1S1 cells [1] = assay: Cell viability assay (CCK-8); assay type: cell-based
Method: N1S1 cells (1×10^4/mL) were seeded onto 96-well plates. […] Then the cells were washed with PBS and replenished with fresh media. After 24 h or 48 hr incubation, the cells viability was measured with CCK-8 assay.

GPX-4 = tested on: GPX-4
Method: (§1) N1S1 cells were seeded in the 8 cm culture dishes and cultured at 5% CO2, 37° C. overnight. The cells were treated with various groups for […]: ethanol (25, 20, 15, 10, and 5%) for 4, 12, and 24 h, and 15% ethanol+Cur1, 10% ethanol+Cur1, 15% ethanol+Cur2, 10% ethanol+Cur2, 15% ethanol+Cur3, and 10% ethanol+Cur3 for 24 h. […] No treatment of N1S1 was used as control. The cell lysates were collected and analyzed by Western blotting according to the manufacturer's instructions. Antibodies were used listed as below: GPX4 Rabbit anti-Human, Mouse, Rat, Polyclonal, Invitrogen™, catalog number: PIPA579321, dilution 0.1-0.5 μg/mL; p-STAT3 Rabbit mAb, cell signaling, catalog number: 9145, dilution 1:2000; p-p65 Rabbit mAb, cell signaling, catalog number: 3033, dilution 1:1000; PD-L1 Polyclonal Antibody, Invitrogen™, catalog number: PA5-20343, dilution 0.5-2 μg/mL; β-Actin (8H10D10) Mouse mAb (HRP Conjugate), cell signaling, catalog number: 12262, dilution 1:1000.
Western blot assay was then used to identify specific molecules associated with cancer cell response to the ethanol treatments. […] However, relatively low ethanol concentrations (10, 5, and 1%) increased the GPX-4 level at 12 h post-treatment compared to 4 h post-treatment, indicating a defensive response to the oxidative stress caused by ethanol. […] This is in agreement with the results of the cell viability and Annexin-V/PI assays (FIG. 1).

p-STAT3 = assay: Western blot of p-STAT3 in N1S1 hepatoma cells; assay type: cell-based; conditions: ethanol 10, 5 and 1%
Method: as §1
(§2) Western blot assay was then used to identify specific molecules associated with cancer cell response to the ethanol treatments. […] However, relatively low ethanol concentrations (10, 5, and 1%) increased the GPX-4 level at 12 h post-treatment compared to 4 h post-treatment, indicating a defensive response to the oxidative stress caused by ethanol. […]

p-p65 = assay: Western blot of p-p65 in N1S1 hepatoma cells; assay type: cell-based; conditions: ethanol 10, 5 and 1%
Method: as §1, §2

PD-L1 = assay: Western blot / flow cytometry of PD-L1 in N1S1 hepatoma cells; assay type: cell-based; conditions: ethanol 10, 5 and 1%
Method: as §1, §2

[2] = tested on: N1S1 HCC tumors in rat liver; assay: In vivo abscopal effect of ethanol-curcumin treated N1S1 cells, tumor volume by MRI; conditions: left lobe inoculated with treated N1S1 cells (10% ethanol or 10% ethanol plus Cur2 0.5% w/v) mixed with non-treated cells, MRI 8-day post-inoculation
Source text: (§3) The rats in the control group were only inoculated in the right lobe of the liver with 5 million non-treated N1S1 cells. The right-side tumors (arrow in FIG. 5A) were established for testing abscopal effect. These tumors were collected for an immune status assay. The tumor in the control group was used as the baseline.

[3] = tested on: N1S1 HCC tumors in rat liver; assay: In vivo immune status of right-side tumors by flow cytometry; conditions: 8 days post treatment
Source text: To test in vivo tumor neutrophil cell populations, rats were sacrificed, and tumors were harvested at 8 days post treatment and examined by flow cytometry after immunofluorescence staining with anti-CD45-BV605, anti-Granulocytes-PE, and anti-CD11b/c-PerCP/eF710. To determine the intra-tumoral infiltration of CD8+ (CD3+CD4-CD8+), lymphocytes were stained with anti-CD45-BV605, anti-CD3-FITC, anti-CD11b/c-PerCP/eF710, anti-CD4-APC/Cy7, anti-CD8-V450, and anti-IFN-gamma-AF647. To determine the intra-tumoral infiltration of CD4+ (Treg), lymphocytes were stained with anti-CD45-BV605, anti-CD3-FITC, anti-CD11b/c-PerCP/eF710, anti-CD4-APC/Cy7, anti-CD8-V450, anti-CD25-PE, and anti-Foxp3-APC. All antibodies were diluted with the ratio of 1:100 and signal color beads (OneComp eBeads™ Compensation Beads) and unstained bead were used for compensation.
as §3

N1S1 cells [4] = tested on: N1S1 cells
Method: (§4) N1S1 cells were seeded onto the six-well plate (2×10^5/well). […] After washing the cells with PBS, they were fixed with 4% formalin at room temperature for 15 minutes. The results were examined by flow cytometry.

N1S1 cells [5] = assay: Cellular uptake of curcumin (confocal images, flow cytometry)
Method: Briefly, the N1S1 cells (1×10^5/mL) were cultured in a confocal dish (MatTek, 35 mm dish with 14 mm glass bottom). The cellular nucleus was stained with DAPI. Cell membranes were stained with Dil red (D282) following the protocol from ThermoFisher. […] The cells were then fixed by 4% paraformaldehyde and visualized with a confocal microscope (Nikon AIRS).
as §4

## CCO [ethanol]
N1S1 cells [1]; ethanol 15% to 1%, 5-min and 10-min coincubation
  cell-killing effect on N1S1 hepatoma cells (CCK-8 cell viability): modest cell-killing effect
N1S1 cells [1]; ethanol 25% and 20%, 5-min and 10-min coincubation, 24 h and 48 h post-treatment
  growth inhibition of N1S1 hepatoma cells (CCK-8 cell viability): efficient growth inhibition
N1S1 cells [1]; ethanol 25% to 5%, 10 min coincubation
  liver cancer cell N1S1 growth: inhibits
N1S1 cells [1]; lower ethanol concentrations, 5-min and 10-min coincubation, 48 h vs 24 h
  cell viability at 48 h post-treatment: recovery of cell viability
GPX-4; ethanol 10, 5 and 1%
  GPX-4 level at 12 h compared to 4 h post-treatment: increased
GPX-4; ethanol 10, 5 and 1%, 24 h
  expression of GPX-4 at 24 h post-treatment: reduced to normal levels
GPX-4; ethanol 25, 20 and 15%, 4 h, 12 h and 24 h
  GPX-4 level: consistently low
p-STAT3
  p-STAT3 activation: consistent activation
p-p65
  p-p65 activation: consistent activation
PD-L1
  PD-L1 expression: upregulation
[2]
  average tumor volume of right-side HCC tumors: about 130 mm^3
[3]
  IL-17 T cells in right-side tumor, difference among groups: no significant difference
  neutrophil population in right-side tumor compared to control: no significant difference
  population of Tregs in right-side tumor compared to control group: decreased population
N1S1 cells [4]; 10-min coincubation, various ethanol concentrations, found even at 0 h
  early apoptosis and late apoptosis populations (Annexin-V/PI): Dosage-dependent increase
N1S1 cells [4]; ethanol 15%, 10%, 5%, 1%, 48 h
  live cell populations at 48 h: higher live cell populations
N1S1 cells [4]; ethanol 25% and 20%, 10-min coincubation
  late apoptosis population at 48 h compared to 0 h and 24 h: decreased late apoptosis population
N1S1 cells [4]; ethanol 25% and 20%, all time points (0, 24, 48 h)
  live cell populations (Annexin-V negative and PI negative): remained low

## COc1cc(/C=C/C(=O)CC(=O)/C=C/c2ccc(O)c(OC)c2)ccc1O [curcumin, (1E,6E)-1,7-bis(4-hydroxy-3-methoxyphenyl)hepta-1,6-diene-3,5-dione]
N1S1 cells [5]; higher concentration of ethanol in ethanol-curcumin solution
  cellular uptake of curcumin (green fluorescence signal): higher cellular uptake
N1S1 cells [5]; uptake amplified by the ethanol solution
  time curcumin maintained in N1S1 hepatoma cells: at least 48 h
